Laboratory results from patent publication US20110021531A1, “OXAZOLE DERIVATIVES USEFUL AS INHIBITORS OF FAAH” (priority 2009, published 2011).

Experiments:
[1] = biological target: T1, human FAAH (Fatty Acid Amide Hydrolase) (Homo sapiens, UniProt O00519); test: FAAH enzyme assay on lysate of CHO cells expressing human FAAH; assay type: biochemical
T1 construct: The full length FAAH was subcloned into the mammalian expression vector, pcDEF.neo
T1 sequence (O00519 1-579): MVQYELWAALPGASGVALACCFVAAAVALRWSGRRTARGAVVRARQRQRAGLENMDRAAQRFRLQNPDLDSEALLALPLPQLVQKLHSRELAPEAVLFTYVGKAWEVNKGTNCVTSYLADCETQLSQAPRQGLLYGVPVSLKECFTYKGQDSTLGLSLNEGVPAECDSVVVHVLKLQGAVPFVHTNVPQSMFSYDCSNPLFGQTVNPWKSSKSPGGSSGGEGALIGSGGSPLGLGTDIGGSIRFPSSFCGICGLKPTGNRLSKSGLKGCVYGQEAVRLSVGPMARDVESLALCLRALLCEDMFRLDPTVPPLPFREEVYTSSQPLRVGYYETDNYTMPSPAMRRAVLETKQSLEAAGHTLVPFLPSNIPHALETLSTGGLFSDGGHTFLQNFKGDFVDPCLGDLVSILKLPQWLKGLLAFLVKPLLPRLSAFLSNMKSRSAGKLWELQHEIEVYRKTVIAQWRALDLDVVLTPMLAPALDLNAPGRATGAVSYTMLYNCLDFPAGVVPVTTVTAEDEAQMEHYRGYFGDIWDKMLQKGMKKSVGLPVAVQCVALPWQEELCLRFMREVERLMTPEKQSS
Excerpt: (§1) To assist in assay development stable cell lines for human, murine and rat full length FAAH were developed. Human FAAH cDNA (Accession No: NM_001441.1) was purchased from Origene (Rockville, Md.). The full length FAAH was subcloned into the mammalian expression vector, pcDEF.neo, using XbaI and EcoRI restriction sites and used for stable cell line generation.
CHO cells expressing FAAH were used to prepare either crude cell lysate or microsome fractions. To harvest cells, tissue culture media was decanted, the monolayer washed three times with Ca^++Mg^++ free PBS and cells recovered after […] in enzyme free dissociation media (Millipore Corp, Billerica, Mass.). Cells were collected by centrifuging at 2000 rpm for 15 min. and the cell pellet re-suspended with 50 mM HEPES (pH 7.4) containing 1 mM EDTA and the protease inhibitors aprotinin (1 mg/ml) and leupeptin (100 μM). The suspension was sonicated at 4° C. and the cell lysate recovered after centrifuging at 12,000×g (14,600 rpm, SS34 rotor) for 20 min at 4° C. to form a crude pellet of cell debris, nuclei, peroxisomes, lysosomes, and mitochondria; the supernatant or cell lysate was used for FAAH enzyme assay. In some cases, microsomes fractions enriched in FAAH were prepared by centrifuging the cell lysate further at 27,000 rpm (100,000×g) in SW28 rotor for 50 minutes at 4° C. The pellet containing FAAH-enriched microsomes was re-suspend in 50 mM HEPES, (pH 7.4) 1 mM EDTA, and any remaining DNA sheared by passage of material through a 23 gauge needle and aliquots of enzyme were store at −80° C. prior to use.
(§2) (American Radiolabeled Chemicals; 1 mCi/ml) with FAAH (Life Sciences (1995), 56, 1999-2005 and Journal of Pharmacology and Experimented Therapeutics (1997), 283, 729-734), Analytical. Biochemistry (2003), 318, 270-5. In addition, routine assays were performed monitoring hydrolysis of arachidonyl-7-amino-4-methylcoumarin amide (AAMCA) by following increase in fluorescence upon release of 7-amino 4-methyl coumarin (λEX=355 nm, (λEM=460 nm). Analytical. Biochemistry (2005). 343, 143-51
(§3) Assays are performed on either cell lysate or microsome fractions prepared as described or in whole cell format employing either the fluorescent substrate AAMCA (Cayman chemical, Ann Arbor, Mich.,) or ^3H-anandmaide ([ETHANOLAMINE-1-3H]American Radiolabeled Chemicals; 1 mCi/ml). The cell lysate or microsome assay is performed in Costar black wall, clear bottom plates by adding FAAH_CF10 (whole cell, cell lysate or microsome) in assay buffer (50 mM Phosphate, pH 8.0, 1 mM EDTA, 200 mM KCl, 0.2% glycerol, 0.1% fatty acid free BSA) to each well, followed by either DMSO or compound and allowed to incubate at 22-25° C. for fifteen minutes. AAMCA substrate was used to achieve a final concentration of 1 μM and reaction allowed to proceed at room temperature for 1-3 hours. Fluorescent release as a measure of FAAH activity was monitored by reading the plate in a CytoFluor Multiplate Reader (Ex: […]). Whole cell assay is conducted with cells harvested after rinsing tissue culture flasks three times with Ca^++Mg^++ free PBS, incubating for 10 min in Enzyme free dissociation media and centrifuging for 5 minutes at 1,000 rpm in table top centrifuge. Cells are resuspended in assay buffer at desired cell number in (4×10^4 cells/assay in 96-well format; 1×10^4 cells/assay in 384-well format) and assayed as described.
Alternatively, assays are performed using anandamide [ethanolamine 1-^3H] (specific activity of 10 Ci/mmol) diluted with cold anandamide to achieve a final assay concentration of 1 μM anandamide (˜50,000 cpm). Enzyme (CHO cell lysate, brain or liver homogenate) is incubated in assay buffer (50 mM Phosphate, pH 8.0, 1 mM EDTA, 200 mM KCl, 0.2% glycerol, 0.1% fatty acid free BSA) with inhibitor at 25° C. for 30 minutes. The reaction was terminated by addition of 2 volumes of chloroform:methanol (1:1) and mixed by vortexing. […]

[2] = biological target: T1, human FAAH (Fatty Acid Amide Hydrolase); test: FAAH whole cell assay, CHO cells expressing human FAAH; assay type: cell-based
Excerpt: as §1
(§4) Murine (accession number NM_010173) and Rat FAAH (accession number NM_024132) was amplified by reverse transcriptase polymerase chain reaction (RT-PCR) from brain cDNA (BD Biosciences, San Jose, Calif.) using primers 1 and 2 or primers 1 and 3 respectively (see Table). The resulting PCR product was ligated into pCR4 TOPO and DNA sequence confirmed. The full length murine FAAH was subcloned into the mammalian expression vector, pcDEFneo using either EcoRI (murine) or KpnI and EcoRI (rat) restriction sites. Chinese hamster ovary cells (CHO) were transfected following manufacturers protocol (AMAXA). Forty eight hours post transfection, cells were trypsinized and transferred to 96 well plates in Iscove's DMEM media supplemented with 2 mM Glutamine, 10% fetal calf serum, 1 mg/ml geneticin and HT Supplement (0.1 mM sodium hypoxanthine, 0.016 mM thymidine) in order to isolate single clones. Following selection in geneticin, individual clones were selected and FAAH activity was assessed using a whole cell fluorescent anandamide assay, modified from Ramarao et al (2005). Following removal of tissue culture media cells were dislodged following addition of Cellstripper (Mediatech, Inc. Manassas, Va.) and transferred to 96 well black clear bottom assay plate, centrifuged at 1,000 rpm for 3 mins and media removed and replaced with assay buffer (50 mM Iris pH8.0, 1 mM EDTA, 0.1% fatty acid free BSA). The reaction was initiated by addition of fluorescent substrate, AMC Arachidonoyl Amide (Cayman Chemical, Ann Arbor, Mich.) to 1 μM and reaction allowed to proceed for 2 hours at room temperature. Release of fluorescence was monitored in a CytoFluor Multiplate Reader. Cells expressing the highest amount of FAAH activity were selected for study with FAAH inhibitors.
as §2, §3

[3] = biological target: T2, rat FAAH (Fatty Acid Amide Hydrolase) (Rattus norvegicus, UniProt P97612); test: FAAH whole cell assay, CHO cells expressing rat FAAH; assay type: cell-based
T2 sequence (P97612 1-579): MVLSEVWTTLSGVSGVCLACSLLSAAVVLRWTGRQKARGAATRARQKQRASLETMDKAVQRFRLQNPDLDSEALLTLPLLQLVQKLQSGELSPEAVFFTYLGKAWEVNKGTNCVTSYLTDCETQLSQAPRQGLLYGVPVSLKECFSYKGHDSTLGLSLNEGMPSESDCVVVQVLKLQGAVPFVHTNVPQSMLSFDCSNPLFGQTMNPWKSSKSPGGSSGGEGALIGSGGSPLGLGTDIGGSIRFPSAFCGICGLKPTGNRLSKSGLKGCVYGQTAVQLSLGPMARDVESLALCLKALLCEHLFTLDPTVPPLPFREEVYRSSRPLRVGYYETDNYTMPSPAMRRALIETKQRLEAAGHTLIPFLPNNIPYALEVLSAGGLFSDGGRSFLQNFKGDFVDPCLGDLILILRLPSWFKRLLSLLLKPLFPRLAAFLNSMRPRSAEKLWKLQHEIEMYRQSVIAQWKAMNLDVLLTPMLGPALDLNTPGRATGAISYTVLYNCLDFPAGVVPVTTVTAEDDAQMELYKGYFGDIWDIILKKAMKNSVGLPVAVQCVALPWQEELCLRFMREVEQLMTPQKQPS
Excerpt: as §1, §4, §2, §3

SMILES	IC50 [1] [nM]	IC50 [2] [nM]	IC50 [3] [nM]
Fc1ccc(-c2nc(-c3ccc(-c4ncon4)nc3)c(Sc3ccc(Cl)cn3)o2)cc1 [Ex 71, 5-Chloro-2-({2-(4-fluorophenyl)-4-[6-(1,2,4-oxadiazol-3-yl)pyridin-3-yl]-1,3-oxazol-5-yl}sulfanyl)pyridine]	10	30	14
CC(C)(O)c1ncc(-c2nc(-c3ccc(F)cc3)oc2Sc2ccc(Cl)cn2)cn1 [Ex 74, 2-(5-{5-[(5-Chloropyridin-2-yl)sulfanyl]-2-(4-fluorophenyl)-1,3-oxazol-4-yl}pyrimidin-2-yl)propan-2-ol]	8	37	34
CS(=O)(=O)c1ccc(-c2nc(-c3ccc(F)cc3)oc2Sc2ccc(Cl)cn2)cc1 [Ex 78, 5-Chloro-2-({2-(4-fluorophenyl)-4-[4-(methylsulfonyl)phenyl]-1,3-oxazol-5-yl}sulfanyl)pyridine]	28	69	39
CC(C)(O)c1ccc(-c2nc(-c3ccc(F)cc3)oc2Sc2ccc(Cl)cn2)cc1 [Ex 80, 2-(4-{5-[(5-Chloropyridin-2-yl)sulfanyl]-2-(4-fluorophenyl)-1,3-oxazol-4-yl}phenyl)propan-2-ol]	35	67	25
CC(C)(O)c1ccc(-c2nc(C3CC3)oc2Sc2ccc(Cl)cn2)cn1 [Ex 90, 2-(5-{5-[(5-Chloropyridin-2-yl)sulfanyl]-2-cyclopropyl-1,3-oxazol-4-yl}pyridin-2-yl)propan-2-ol]	46	1000	247
CC(C)(O)c1ccc(-c2nc(-c3ccc(F)cc3)oc2Sc2ccc(Cl)cn2)nn1 [Ex 96, 2-(6-{5-[(5-Chloropyridin-2-yl)sulfanyl]-2-(4-fluorophenyl)-1,3-oxazol-4-yl}pyridazin-3-yl)propan-2-ol]	17	133	63
CC(C)(O)c1cc(-c2nc(-c3ccc(F)cc3)oc2Sc2ccc(Cl)cn2)on1 [Ex 98, 2-(5-{5-[(5-Chloropyridin-2-yl)sulfanyl]-2-(4-fluorophenyl)-1,3-oxazol-4-yl}isoxazol-3-yl)propan-2-ol]	44	222	35
CC(C)(O)c1csc(-c2nc(-c3ccc(F)cc3)oc2Sc2ccc(Cl)cn2)n1 [Ex 100, 2-(2-{5-[(5-Chloropyridin-2-yl)sulfanyl]-2-(4-fluorophenyl)-1,3-oxazol-4-yl}-1,3-thiazol-4-yl)propan-2-ol]	161	337	39
CS(=O)(=O)c1ccc(-c2nc(-c3ccc(F)cc3)oc2Sc2ccc(Cl)cn2)cn1 [Ex 102, 5-Chloro-2-({2-(4-fluorophenyl)-4-[6-(methylsulfonyl)pyridin-3-yl]-1,3-oxazol-5-yl}sulfanyl)pyridine]	12	35	17
CS(=O)(=O)c1ccc(-c2nc(-c3ccc(F)cc3)oc2Sc2ncc(Cl)cn2)cn1 [Ex 107, 5-Chloro-2-({2-(4-fluorophenyl)-4-[6-(methylsulfonyl)pyridin-3-yl]-1,3-oxazol-5-yl}sulfanyl)pyrimidine]	24	91	11
CCn1cc(-c2nc(-c3ccc(C(C)(C)O)nc3)c(Sc3ccc(Cl)cc3)o2)cn1 [Ex 111, 2-(5-{5-[(4-chlorophenyl)sulfanyl]-2-(1-ethyl-1H-pyrazol-4-yl)-1,3-oxazol-4-yl)pyridin-2-yl}propan-2-ol]	11	64	24
CC(C)(O)c1ccc(-c2nc(-c3cncc(Cl)c3)oc2Sc2ccc(Cl)cn2)cn1 [Ex 119, 2-(5-{2-(5-Chloropyridin-3-yl)-5-[(5-chloropyridin-2-yl)sulfanyl]-1,3-oxazol-4-yl}pyridin-2-yl)propan-2-ol]	28	47	20
N#CC1(c2ccc(-c3nc(-c4ccc(F)cc4)oc3Sc3ccc(Cl)cn3)cn2)CC(O)C1 (stereo not drawn) [Ex 122, 1-(5-{5-[(5-Chloropyridin-2-yl)sulfanyl]-2-(4-fluorophenyl)-1,3-oxazol-4-yl}pyridin-2-yl)-3-hydroxycyclobutanecarbonitrile]	161	474	146
